Measured values taken from US20260138961A1, “MODULATORS OF MITOCHONDRIAL DNA REPLICATION” (Pretzel Therapeutics, Inc., priority 2022, published 2026).

These compounds were tested against T1, POLγA:R309C (Homo sapiens, UniProt P54098, R309C) (assay: DNA polymerization assay, POLγA:R309C mutant). Settings: stimulation of polymerase activity, primed M13mp18 ssDNA, 37° C. 2 hours.
T1 sequence (P54098 1-1239 R309C): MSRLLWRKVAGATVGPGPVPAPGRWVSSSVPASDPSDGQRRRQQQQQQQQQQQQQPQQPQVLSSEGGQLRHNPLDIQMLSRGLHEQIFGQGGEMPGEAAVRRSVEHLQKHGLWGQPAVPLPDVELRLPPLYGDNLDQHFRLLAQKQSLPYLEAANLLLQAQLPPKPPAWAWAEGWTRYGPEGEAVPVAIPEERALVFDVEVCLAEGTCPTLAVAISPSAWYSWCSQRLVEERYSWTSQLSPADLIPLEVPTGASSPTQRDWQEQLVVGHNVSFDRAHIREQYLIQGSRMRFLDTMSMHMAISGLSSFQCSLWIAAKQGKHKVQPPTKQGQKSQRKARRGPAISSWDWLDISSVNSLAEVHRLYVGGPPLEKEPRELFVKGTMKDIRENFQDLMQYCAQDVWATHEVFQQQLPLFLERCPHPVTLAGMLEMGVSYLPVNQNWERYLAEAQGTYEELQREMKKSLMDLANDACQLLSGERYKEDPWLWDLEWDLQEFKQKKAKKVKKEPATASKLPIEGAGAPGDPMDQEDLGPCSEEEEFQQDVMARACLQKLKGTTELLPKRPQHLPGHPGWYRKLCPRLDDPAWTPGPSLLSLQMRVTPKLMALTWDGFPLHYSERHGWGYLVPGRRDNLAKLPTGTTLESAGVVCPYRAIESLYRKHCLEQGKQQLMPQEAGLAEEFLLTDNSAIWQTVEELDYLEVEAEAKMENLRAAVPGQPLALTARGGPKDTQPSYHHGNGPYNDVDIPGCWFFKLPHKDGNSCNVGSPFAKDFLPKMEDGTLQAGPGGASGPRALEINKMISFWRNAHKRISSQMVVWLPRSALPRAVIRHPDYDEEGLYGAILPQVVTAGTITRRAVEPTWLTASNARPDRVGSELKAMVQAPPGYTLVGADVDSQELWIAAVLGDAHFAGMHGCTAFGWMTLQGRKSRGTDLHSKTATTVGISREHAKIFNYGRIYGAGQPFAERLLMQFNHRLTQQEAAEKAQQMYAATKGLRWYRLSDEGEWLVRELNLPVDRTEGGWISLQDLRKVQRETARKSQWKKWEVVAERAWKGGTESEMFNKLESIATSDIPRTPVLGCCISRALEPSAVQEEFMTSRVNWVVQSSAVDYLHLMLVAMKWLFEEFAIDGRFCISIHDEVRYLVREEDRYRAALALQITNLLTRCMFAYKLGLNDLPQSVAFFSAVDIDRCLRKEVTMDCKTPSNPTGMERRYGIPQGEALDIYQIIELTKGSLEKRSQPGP
T1 sequence (Q9UHN1 1-485 partner): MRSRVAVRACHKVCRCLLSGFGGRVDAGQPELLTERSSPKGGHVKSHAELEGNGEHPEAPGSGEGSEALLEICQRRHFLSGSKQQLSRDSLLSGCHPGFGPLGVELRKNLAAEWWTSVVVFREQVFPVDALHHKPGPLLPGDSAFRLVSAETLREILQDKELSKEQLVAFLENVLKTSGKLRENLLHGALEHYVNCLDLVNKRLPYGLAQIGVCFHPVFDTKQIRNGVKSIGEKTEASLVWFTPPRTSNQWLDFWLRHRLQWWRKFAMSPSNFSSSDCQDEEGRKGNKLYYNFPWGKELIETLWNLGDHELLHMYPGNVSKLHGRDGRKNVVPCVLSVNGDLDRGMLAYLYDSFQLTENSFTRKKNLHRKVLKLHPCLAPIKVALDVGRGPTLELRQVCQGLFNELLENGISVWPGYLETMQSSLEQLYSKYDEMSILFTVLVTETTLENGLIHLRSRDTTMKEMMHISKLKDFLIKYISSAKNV
Assay type: biochemical
Description: DNA Polymerization Assay to Monitor Effects on Human Wildtype POLγ and Four Disease-Causing Mutant Variants of Human POLγ.
The ability of small molecules to stimulate the polymerase activity of POLγ was analyzed in a quantitative fluorescence SYBR Green I assay with fluorescence intensity (FI) readout.
In the presence of dNTPs, wild type human POLγ and mutant derivatives thereof were incubated with single-stranded, circular M13mp18 ssDNA hybridized to a short DNA oligonucleotide that functions as a primer for initiation of DNA synthesis. POLγ and mutant derivatives thereof will extend the primer and use the M13mp18 molecule as a template to synthesize long stretches of double-stranded DNA. SYBR Green I, which is a double-stranded DNA-binding dye, was used to quantify formation of double-stranded DNA in the reaction. When bound to double-stranded DNA, SYBR Green I fluorescence increases by up to 100-fold.
The assay was performed in the 384-well plate format. Upon addition of compounds, changes in double-stranded DNA synthesis activity can be monitored by following effects on fluorescent intensity.
The reactions also contained the accessory POLγB subunit, and the human mitochondrial single-stranded DNA binding protein (mtSSB).
The DNA template mixture used in the assay contained 0.5 nM primed M13 mp18 ssDNA, 400 nM mtSSB, 0.1 mM Tris-HCl (pH 8.0), 0.1 mM dNTP, 10 mM MgCl2, 0.1 mg/mL BSA, 1 mM TCEP solution, and 0.02% Triton X-100. The DNA template mixture for the wild type protein contained either 100 μM dNTP, 1 μM dNTP, or 0.1 μM dNTP, designated in Table 2 as 100 μM, 1 μM, and 0.1 μM, respectfully.
Microplates with compounds (0.1 μL in each well) to be tested in the assay were prepared from 10 mM compound stocks in 100% DMSO, and equal amounts of DMSO without any compound were added to positive and negative control wells.
The protein mixture was dispensed (5 μL into each well) into compound plates and incubated at 37° C. for 15 minutes. After incubation, 5 μL of the DNA template mixture was dispensed into each well. The plates were then incubated at 37° C. for 2 hours.
During incubation, a combined stop buffer and detection reagent solution was prepared. The buffer contained 25 mM EDTA (pH 8.0), 0.02% Triton X-100, and SYBR Green I [Invitrogen] diluted 10,000× (for fluorescent readout). EDTA will stop the enzymatic reaction by chelating magnesium ions.

Compound | AC50 [µM]
Cc1cc(S(=O)(=O)Nc2cccc(C(=O)N(C)C(C)CO)c2)c(C)cc1Cl (single isomer, unassigned) [Example 14, 3-((4-chloro-2,5-dimethylphenyl)sulfonamido)-N-(1-hydroxypropan-2-yl)-N-methylbenzamide] | 13
Cc1ccc(C)c(S(=O)(=O)Nc2cccc(C(=O)N3CCCCC3C#N)c2)c1 (centres unmarked) [Example 2, N-(3-(2-cyanopiperidine-1-carbonyl)phenyl)-2,5-dimethylbenzenesulfonamide] | 8
Cc1ccc(C)c(S(=O)(=O)Nc2cccc(C(=O)N3CCCCC3)c2)c1 [Example 3, 2,5-dimethyl-N-(3-(piperidine-1-carbonyl)phenyl)benzene sulfonamide] | 28
Cc1ccc(C)c(S(=O)(=O)Nc2cccc(C(=O)NCC3CC3)c2)c1 [Example 4, N-(cyclopropylmethyl)-3-((2,5-dimethylphenyl)sulfonamido)benzamide] | 25
Cc1ccc(C)c(S(=O)(=O)Nc2cccc(C(=O)N3CCCC[C@H]3C)c2)c1 [Example 5, (R)-2,5-dimethyl-N-(3-(2-methylpiperidine-1-carbonyl)phenyl)benzenesulfonamide] | 11
Cc1ccc(C)c(S(=O)(=O)Nc2cccc(C(=O)N3CCCC[C@@H]3C)c2)c1 [Example 6, (S)-2,5-dimethyl-N-(3-(2-methylpiperidine-1-carbonyl)phenyl)benzenesulfonamide] | 13
Cc1ccc(C)c(S(=O)(=O)Nc2cccc(C(=O)N3CCOCC3C#N)c2)c1 (centres unmarked) [Example 7, N-(3-(3-cyanomorpholine-4-carbonyl)phenyl)-2,5-dimethylbenzenesulfonamide] | 10
Cc1ccc(C)c(S(=O)(=O)Nc2cccc(C(=O)N[C@@H](C)C3CC3)c2)c1 [Example 8, (S)-N-(1-cyclopropylethyl)-3-((2,5-dimethylphenyl)sulfonamido)benzamide] | 4
Cc1cc(S(=O)(=O)Nc2cccc(C(=O)N3CCCC[C@H]3C)c2)c(C)cc1Cl [Example 9, (R)-4-chloro-2,5-dimethyl-N-(3-(2-methylpiperidine-1-carbonyl)phenyl)benzenesulfonamide] | 2
Cc1cc(S(=O)(=O)Nc2cccc(C(=O)N3CCC[C@H]3C)c2)c(C)cc1Cl [Example 10, (R)-4-chloro-2,5-dimethyl-N-(3-(2-methylpyrrolidine-1-carbonyl)phenyl)benzenesulfonamide] | 1
Cc1cc(S(=O)(=O)Nc2cccc(C(=O)NCc3ccccc3)c2)c(C)cc1Cl [Example 11, N-benzyl-3-((4-chloro-2,5-dimethylphenyl)sulfonamido)benzamide] | 6
Cc1cc(S(=O)(=O)Nc2cccc(C(=O)N(C)C)c2)c(C)cc1Cl [Example 12, 3-((4-chloro-2,5-dimethylphenyl)sulfonamido)-N,N-dimethylbenzamide] | 3
Cc1cc(S(=O)(=O)Nc2cc(F)cc(C(=O)N3CCC[C@H]3C)c2)c(C)cc1Cl [Example 13, (R)-4-chloro-N-(3-fluoro-5-(2-methylpyrrolidine-1-carbonyl)phenyl)-2,5-dimethylbenzenesulfonamide] | 3
Cc1cc(S(=O)(=O)Nc2cccc(-c3nccs3)c2)c(C)cc1Cl [Example 16, 4-chloro-2,5-dimethyl-N-(3-(thiazol-2-yl)phenyl)benzenesulfonamide] | 2
Cc1cc(S(=O)(=O)Nc2cccc(-c3ncco3)c2)c(C)cc1Cl [Example 17, 4-chloro-2,5-dimethyl-N-(3-(oxazol-2-yl)phenyl)benzenesulfonamide] | 2
Cc1cc(S(=O)(=O)Nc2cccc(-c3ccn(C)n3)c2)c(C)cc1Cl [Example 18, 4-chloro-2,5-dimethyl-N-(3-(1-methyl-1H-pyrazol-3-yl)phenyl)benzenesulfonamide] | 5
Cc1cc(S(=O)(=O)Nc2cccc(-c3nccn3C)c2)c(C)cc1Cl [Example 19, 4-chloro-2,5-dimethyl-N-(3-(1-methyl-1H-imidazol-2-yl)phenyl)benzenesulfonamide] | 3
Cc1cc(S(=O)(=O)Nc2cccc(-c3ncc(C#N)s3)c2)c(C)cc1Cl [Example 96, 4-chloro-N-(3-(5-cyanothiazol-2-yl)phenyl)-2,5-dimethylbenzenesulfonamide] | > 100
Cc1cnc(-c2ccc(C)c(NS(=O)(=O)c3cc(C)c(Cl)cc3C)c2)s1 [Example 98, 4-chloro-2,5-dimethyl-N-(2-methyl-5-(5-methylthiazol-2-yl)phenyl)benzenesulfonamide] | > 100
Cc1cnc(-c2ccc(Cl)c(NS(=O)(=O)c3cc(C)c(Cl)cc3C)c2)s1 [Example 102, 4-chloro-N-(2-chloro-5-(5-methylthiazol-2-yl)phenyl)-2,5-dimethylbenzenesulfonamide] | > 100
Cc1cnc(-c2cc(NS(=O)(=O)c3cc(C)c(Cl)cc3C)ccc2C)s1 [Example 103, 4-chloro-2,5-dimethyl-N-(4-methyl-3-(5-methylthiazol-2-yl)phenyl)benzenesulfonamide] | 58
Cc1cc(S(=O)(=O)Nc2ccc3c(c2)CC(=O)N3)c(C)cc1Cl [Example 185, 4-chloro-2,5-dimethyl-N-(2-oxoindolin-5-yl)benzenesulfonamide] | 8
(R)-2,5-dimethyl-N-(3-(3-methylmorpholine-4-carbonyl)phenyl)benzenesulfonamide [Example 1] | 12
